# Assay results as given in patent US20110124626A1, “BENZAZEPINE DERIVATIVES AND THEIR USE AS HISTAMINE H3 ANTAGONISTS” (TAKEDA PHARMACEUTICAL COMPANY LIMITED, priority 2008, published 2011).
# Experiments:
# human H3 receptor [1] = molecular target: T1, human H3 receptor (Homo sapiens, UniProt Q9Y5N1); experiment: In vitro H3 binding assay (3H-N-α-methyl-histamine competition binding); conditions: membranes of CHO-K1 cells expressing human H3 receptor; 2 nM 3H-NαMH; read-out: hH3 binding IC50
# T1 construct: expressed in transfected cells
# Summary of the method: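 Membranes from CHO-K1 cells stably expressing human H3 (5 μg/well) incubated 1 h at room temperature with compound and 2 nM ³H-NαMH in 50 mM Tris-HCl pH 7.4, 5 mM MgCl2; non-specific binding defined with 1 μM RαMH. Bound radioactivity measured by filtration and scintillation; IC50 from seven-point curves by variable-slope sigmoidal regression.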
# human H3 receptor [2] = molecular target: T1, human H3 receptor; experiment: In vitro H3 functional assay (cAMP response element driven luciferase reporter); format: cell-based; conditions: CHO(dhfr+)-cre-luc cells expressing human H3 receptor; RαMH 10 nM, forskolin 1 μM; read-out: hH3 functional IC50
# Experimental: The functional activity of compounds at the H3 receptor was determined by measuring changes in the level of intracellular cAMP using a cAMP response element driven luciferase reporter assay. The changes in luciferase expression were monitored by a luminescence plate reader, Analyst HT (MDS Analytical). Increases in intracellular cAMP were readily detected upon activation of protein kinase A by forskolin (Sigma) and suppression of this response observed with the application of the H3 receptor agonist RαMH (Sigma).
# CHO(dhfr^+)-cre-luc cells stably expressing human H3 receptor were routinely grown as monolayers in Minimal Essential Medium α (MEMα) (Invitrogen) supplemented with 10% dialysed FBS (Hyclone), in 5% CO2 at 37° C. 48 hours prior to assay, cells were seeded in clear-base white walled 384-well plates (Corning) at a density of 5000 cells/well. On the day of assay, growth media was removed and replaced with […] of assay buffer (MEMα, 5 mg/ml fatty acid free BSA (Sigma)) per well. Cells were then incubated for 30 minutes at 37° C., 5% CO2. Compound was serially diluted in DMSO before being diluted 1:10 with assay buffer. 2.5 of compound diluted in assay buffer was added and cells incubated for 5 minutes at 37° C., 5% CO2. 2.5 μl of each reagent was then added in the following order: RαMH (10 nM), isobutylmethylxanthine (1-methyl-3-(2-methylpropyl)-7H-purine-2,6-dione; IBMX) (500 μM) (Sigma) and forskolin (1 μM). Cells were then incubated for 90 minutes at 37° C., 5% CO2, followed by 30 minutes at room temperature. At the end of incubation 25 μl of Steadylite reagent (Perkin Elmer) was added, plates were sealed and placed on a shaker for 5 minutes. The level of light output to determine the level of luciferase expression was then measured.
# IC50 values for compounds were determined from ten point half log scale dose-response studies and represent the concentration of compound required to […] 50% inhibition of forskolin stimulated cells in the presence of RαMH alone. Curves were generated using the average of duplicate wells for each data point and analyzed using nonlinear regression of four parameter dose response.
# T1 sequence (Q9Y5N1 whole entry): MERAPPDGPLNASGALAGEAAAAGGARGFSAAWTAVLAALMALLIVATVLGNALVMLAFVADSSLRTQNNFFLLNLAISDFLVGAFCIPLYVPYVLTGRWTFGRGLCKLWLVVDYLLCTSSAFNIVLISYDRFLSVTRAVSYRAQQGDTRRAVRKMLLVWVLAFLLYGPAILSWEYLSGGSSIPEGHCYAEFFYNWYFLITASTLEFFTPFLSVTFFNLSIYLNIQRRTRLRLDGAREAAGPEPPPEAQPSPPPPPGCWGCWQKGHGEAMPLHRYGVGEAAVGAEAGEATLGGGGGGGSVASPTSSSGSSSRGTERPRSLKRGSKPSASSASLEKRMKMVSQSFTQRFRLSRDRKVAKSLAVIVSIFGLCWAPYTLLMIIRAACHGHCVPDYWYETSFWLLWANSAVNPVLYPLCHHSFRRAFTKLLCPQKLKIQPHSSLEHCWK
Structure (SMILES),IC50 (human H3 receptor [1]) [nM],IC50 (human H3 receptor [2]) [nM]
"O=C(NCc1nc2ccccc2s1)c1ccc2c(c1)CCN(C1CCC1)CC2 [Example 78, N-(Benzo[d]thiazol-2-ylmethyl)-3-cyclobutyl-2,3,4,5-tetrahydro-1H-benzo[d]azepine-7-carboxamide]",4,2
"Cn1c(CNC(=O)c2ccc3c(c2)CCN(C2CCC2)CC3)nc2ccccc21 [Example 79, 3-Cyclobutyl-N-((1-methyl-1H-benzo[d]imidazol-2-yl)methyl)-2,3,4,5-tetrahydro-1H-benzo[d]azepine-7-carboxamide]",6,3
"O=C(NCc1ccc2nccn2c1)c1ccc2c(c1)CCN(C1CCC1)CC2 [Example 81, 3-Cyclobutyl-N-(imidazo[1,2-a]pyridin-6-ylmethyl)-2,3,4,5-tetrahydro-1H-benzo[d]azepine-7-carboxamide]",0.4,0.8
"O=C(NCc1nccs1)c1ccc2c(c1)CCN(C1CCC1)CC2 [Example 86, 3-Cyclobutyl-N-(thiazol-2-ylmethyl)-2,3,4,5-tetrahydro-1H-benzo[d]azepine-7-carboxamide]",3,1
"O=C(NCc1ccsc1)c1ccc2c(c1)CCN(C1CCC1)CC2 [Example 88, 3-Cyclobutyl-N-(thiophen-3-ylmethyl)-2,3,4,5-tetrahydro-1H-benzo[d]azepine-7-carboxamide]",5,2
"O=C(NCc1ccc(C(F)(F)F)o1)c1ccc2c(c1)CCN(C1CCC1)CC2 [Example 92, 3-cyclobutyl-N-((5-(trifluoromethyl)furan-2-yl)methyl)-2,3,4,5-tetrahydro-1H-benzo[d]azepine-7-carboxamide]",4,1
"Cc1c(CNC(=O)c2ccc3c(c2)CCN(C2CCC2)CC3)cnn1C [Example 97, 3-Cyclobutyl-N-((1,5-dimethyl-1H-pyrazol-4-yl)methyl)-2,3,4,5-tetrahydro-1H-benzo[d]azepine-7-carboxamide]",9,2
"CCn1nccc1CNC(=O)c1ccc2c(c1)CCN(C1CCC1)CC2 [Example 100, 3-cyclobutyl-N-((1-ethyl-1H-pyrazol-5-yl)methyl)-2,3,4,5-tetrahydro-1H-benzo[d]azepine-7-carboxamide]",2,0.5
"Cn1ccc(CNC(=O)c2ccc3c(c2)CCN(C2CCC2)CC3)n1 [Example 103, 3-Cyclobutyl-N-((1-methyl-1H-pyrazol-3-yl)methyl)-2,3,4,5-tetrahydro-1H-benzo[d]azepine-7-carboxamide]",11,1
"Cn1nc(CNC(=O)c2ccc3c(c2)CCN(C2CCC2)CC3)cc1-c1ccccc1 [Example 108, 3-Cyclobutyl-N-((1-methyl-5-phenyl-1H-pyrazol-3-yl)methyl)-2,3,4,5-tetrahydro-1H-benzo[d]azepine-7-carboxamide]",1,4
"Cn1cccc1CNC(=O)c1ccc2c(c1)CCN(C1CCC1)CC2 [Example 111, 3-Cyclobutyl-N-((1-methyl-1H-pyrrol-2-yl)methyl)-2,3,4,5-tetrahydro-1H-benzo[d]azepine-7-carboxamide]",7,7
"Cn1cncc1CNC(=O)c1ccc2c(c1)CCN(C1CCC1)CC2 [Example 114, 3-Cyclobutyl-N-((1-methyl-1H-imidazol-5-yl)methyl)-2,3,4,5-tetrahydro-1H-benzo[d]azepine-7-carboxamide]",12,19
"Cn1ccc(CCC(=O)c2ccc3c(c2)CCN(C2CCC2)CC3)n1 [Example 134, 1-(3-cyclobutyl-2,3,4,5-tetrahydro-1H-benzo[d]azepin-7-yl)-3-(1-methyl-1H-pyrazol-3-yl)propan-1-one]",13,1
"OC(Cc1ccc2c(c1)CCN(C1CCC1)CC2)c1ccccn1 (stereo not shown) [Example 143, 2-(3-cyclobutyl-2,3,4,5-tetrahydro-1H-benzo[d]azepin-7-yl)-1-(pyridin-2-yl)ethanol]",24,7
"CC(=O)N1CCCC(CNC(=O)c2ccc3c(c2)CCN(C2CCC2)CC3)C1 (stereo not shown) [Example 164, N-((1-acetylpiperidin-3-yl)methyl)-3-cyclobutyl-2,3,4,5-tetrahydro-1H-benzo[d]azepine-7-carboxamide]",10,5
"NC(=O)c1ccc2c(c1)CCN(C1CCC1)CC2 [Example 167, 3-cyclobutyl-2,3,4,5-tetrahydro-1H-benzo[d]azepine-7-carboxamide]",22,71
"O=C(NCC1CCS(=O)(=O)C1)c1ccc2c(c1)CCN(C1CCC1)CC2 (stereo not shown) [Example 171, 3-Cyclobutyl-2,3,4,5-tetrahydro-1H-benzo[d]azepine-7-carboxylic acid (1,1-dioxo-tetrahydro-1lambda*6*-thiophen-3-ylmethyl)-amide]",14,4
"O=C(NCc1ccc2c(c1)CCN(C1CCC1)CC2)c1cnccn1 [Example 181, N-((3-cyclobutyl-2,3,4,5-tetrahydro-1H-benzo[d]azepin-7-yl)methyl)pyrazine-2-carboxamide]",21,4
"O=C(NCc1ccc2c(c1)CCN(C1CCC1)CC2)c1cncc(F)c1 [Example 191, N-((3-cyclobutyl-2,3,4,5-tetrahydro-1H-benzo[d]azepin-7-yl)methyl)-5-fluoronicotinamide]",13,2
"O=C(NCc1ccc2c(c1)CCN(C1CCC1)CC2)N1CCCC1 [Example 194, N-((3-cyclobutyl-2,3,4,5-tetrahydro-1H-benzo[d]azepin-7-yl)methyl)pyrrolidine-1-carboxamide]",26,7
"Cc1ncc(C(=O)NCc2ccc3c(c2)CCN(C2CCC2)CC3)cn1 [Example 211, N-((3-cyclobutyl-2,3,4,5-tetrahydro-1H-benzo[d]azepin-7-yl)methyl)-2-methylpyrimidine-5-carboxamide]",6,9
"CC(C)(O)CC(=O)NCc1ccc2c(c1)CCN(C1CCC1)CC2 [Example 216, N-((3-cyclobutyl-2,3,4,5-tetrahydro-1H-benzo[d]azepin-7-yl)methyl)-3-hydroxy-3-methylbutanamide]",41,20
"Cn1nccc1NC(=O)Cc1ccc2c(c1)CCN(C1CCC1)CC2 [Example 221, 2-(3-cyclobutyl-2,3,4,5-tetrahydro-1H-benzo[d]azepin-7-yl)-N-(1-methyl-1H-pyrazol-5-yl)acetamide]",11,3
"O=C(Cc1ccc2c(c1)CCN(C1CCC1)CC2)Nc1cccnc1 [Example 224, 2-(3-cyclobutyl-2,3,4,5-tetrahydro-1H-benzo[d]azepin-7-yl)-N-(pyridin-3-yl)acetamide]",2,4
"CCNC(=O)C1CCC(O)(Cc2ccc3c(c2)CCN(C2CCC2)CC3)CC1 (stereo not shown) [Example 231, 4-((3-cyclobutyl-2,3,4,5-tetrahydro-1H-benzo[d]azepin-7-yl)methyl)-N-ethyl-4-hydroxycyclohexanecarboxamide]",23,15
"CC(C)(O)c1ccc(C(=O)NCc2ccc3c(c2)CCN(C2CCC2)CC3)cn1 [Example 239, N-((3-cyclobutyl-2,3,4,5-tetrahydro-1H-benzo[d]azepin-7-yl)methyl)-6-(2-hydroxypropan-2-yl)nicotinamide]",16,1
"O=C(NCc1ccc2c(c1)CCN(C1CC(F)C1)CC2)c1ccc(N2CCCC2)nc1 (stereo not shown) [Example 242, N-((3-(3-fluorocyclobutyl)-2,3,4,5-tetrahydro-1H-benzo[d]azepin-7-yl)methyl)-6-(pyrrolidin-1-yl)nicotinamide]",0.6,3
"COc1ccc(CC(=O)Cc2ccc3c(c2)CCN(C2CCC2)CC3)cn1 [Example 244, 1-(3-cyclobutyl-2,3,4,5-tetrahydro-1H-benzo[d]azepin-7-yl)-3-(6-methoxypyridin-3-yl)propan-2-one]",10,6
"O=C(NCc1ccc2c(c1)CCN(C1CCC1)CC2)c1ccc(NC2CCC2)nc1 [Example 253, N-((3-cyclobutyl-2,3,4,5-tetrahydro-1H-benzo[d]azepin-7-yl)methyl)-6-(cyclobutylamino)nicotinamide]",1,4
